Laboratory results published in US20230167118A1, “DEGRADATION OF BRUTON'S TYROSINE KINASE (BTK) BY CONJUGATION OF BTK INIDBITORS WITH E3 LIGASE LIGAND AND METHODS OF USE” (BEIGENE, LTD., priority 2020, published 2023).

Tests used:
BTK = molecular target: T1, BTK (Homo sapiens, UniProt Q06187); experiment: Cell Degradation: BTK degradation in TMD-8 cells, HTRF assay; assay type: cell-based; conditions: 6 h treatment, IC50 (DC50) of BTK degradation
T1 construct: High control=Cell group with added DMSO and without compound, indicating microplate readings without BTK degradation; endogenous in cells; host or cells: TMD-8 cells
Experimental: TMD-8 cells are treated with compounds in 0.2% DMSO, dilution is done according to the following protocol: (1) make 500× stock solution in DMSO from 1 mM by 6-fold dilution, total 8 doses were included; (2) make 2× solution in cell culture medium by transferring 0.5 μl 500× stock solution into 125 μl medium; (3) 15 μl of 2× solution is added to cells and incubate for 6 h.
After 6 h treatment, add […] 4×lysis buffer to each well; seal the plate and incubate 30 min at room temperature on a plate shaker; Once the cells are lysed, 16 μL of cell lysate are transferred to a PE 384-well HTRF detection plate; 4 μL of pre-mixed HTRF antibodies are added to each well; Cover the plate with a plate sealer, spin 1000 rpm for 1 min, Incubate overnight at room temperature; Read on BMG PheraStar with HTRF protocol (337 nm-665 nm-620 nm).
The inhibition (degradation) percentage of the compound was calculated by the following equation: Inhibition percentage of Compound=100-100× (Signal-low control)/(High control-low control), wherein signal=each test compound group
Dmax is the maximum percentage of inhibition (degradation).
The IC50 (DC50) value of a compound can be obtained by fitting the following equation
Y=Bottom+(TOP-Bottom)/(1+((IC50/X)^hillslope))
(§1) Wherein, X and Y are known values, and IC50, Hillslope, Top and Bottom are the parameters obtained by fitting with software. Y is the inhibition percentage (calculated from the equation), X is the concentration of the compound; IC50 is the concentration of the compound when the 50% inhibition is reached. The smaller the IC50 value is, the stronger the inhibitory ability of the compound is. Vice versa, the higher the IC50 value is, the weaker the ability the inhibitory ability of the compound is; Hillslope represents the slope of the fitted curve, generally around 1 *; Bottom represents the minimum value of the curve obtained by data fitting, which is generally 0%±20%; Top represents the maximum value of the curve obtained by data fitting, which is generally 100%±20%. The experimental data were fitted by calculating and analyzing with Dotmatics data analysis software.

HEK-293 cells = experiment: HEK-293 Cytotoxicity Assay (CellTiter-Glo); assay type: cell-based; conditions: Homo sapiens, HEK293, 72 h incubation, CellTiter-Glo luminescence
Experimental: HEK-293 Cytotoxicity Assay
HEK-293 cells are treated with compounds diluted in 0.2% DMSO, dilution is done according to the following protocol: (1) make 500× stock solution in DMSO from 5 mM by 4-fold dilution, total 8 doses were included; (2) make 2× solution in cell culture medium by transferring 0.5 ul 500× stock solution into 125 ul medium; (3) 50 ul of 2× solution is added to cells and incubate for 72 h.
Add 25 μl of the CellTiter-Glo®Reagent [I (Promega)—Cat No. G7572] to each well in the 96-well plate. Mix contents for 2 minutes on an orbital shaker to induce cell lysis. Allow the plate to incubate at room temperature for 10 minutes to stabilize luminescent signal. Record luminescence on BMG PheraStar with luminescence protocol.
as §1, with “The IC50 value of a compound can be obtained by fitting the following equation. Y=Bottom+(TOP−Bottom)/(1+((IC50/X)^hillslope)) Wherein,” for “Wherein,”, “1*;” for “1 *;”

T1 sequence (Q06187 whole entry): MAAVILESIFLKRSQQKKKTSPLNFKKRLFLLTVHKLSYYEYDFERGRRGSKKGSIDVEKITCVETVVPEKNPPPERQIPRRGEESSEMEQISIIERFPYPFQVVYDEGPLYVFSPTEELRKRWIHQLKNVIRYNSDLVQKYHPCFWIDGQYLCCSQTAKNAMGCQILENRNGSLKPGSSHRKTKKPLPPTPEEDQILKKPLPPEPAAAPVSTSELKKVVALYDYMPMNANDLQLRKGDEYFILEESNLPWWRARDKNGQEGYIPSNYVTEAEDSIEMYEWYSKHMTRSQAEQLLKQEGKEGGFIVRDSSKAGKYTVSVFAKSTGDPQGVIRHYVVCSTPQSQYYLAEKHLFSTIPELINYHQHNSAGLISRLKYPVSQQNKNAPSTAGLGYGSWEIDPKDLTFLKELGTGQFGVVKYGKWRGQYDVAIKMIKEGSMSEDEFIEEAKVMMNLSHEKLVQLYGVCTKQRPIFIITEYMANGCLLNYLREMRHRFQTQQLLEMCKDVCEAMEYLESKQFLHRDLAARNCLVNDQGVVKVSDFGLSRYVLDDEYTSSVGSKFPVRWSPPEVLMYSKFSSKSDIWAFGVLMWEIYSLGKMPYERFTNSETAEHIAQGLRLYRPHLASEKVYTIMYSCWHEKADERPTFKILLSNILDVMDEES

Row | DC50 (BTK) [nM] | SMILES | IC50 (HEK-293 cells) [nM]
1 | 0.54 | Cc1cc(-c2ncnc3[nH]c(-c4ccc(C5CCN(CC6CCN(c7ccc(N8CCC(=O)NC8=O)cc7)CC6)CC5)cc4)cc23)ccc1CNC(=O)c1nc(C(C)(C)C)no1 [Example 1, 3-(tert-butyl)-N-(4-(6-(4-(1-((1-(4-(2,4-dioxotetrahydropyrimidin-1(2H)-yl)phenyl)piperidin-4-yl)methyl)piperidin-4-yl)phenyl)-7H-pyrrolo[2,3-d]pyrimidin-4-yl)-2-methylbenzyl)-1,2,4-oxadiazole-5-carboxamide] | > 10000
2 | 1.75 | Cc1cc(-c2ncnc3[nH]c(-c4ccc(C5CCN(CC6CCN(c7cc8c(cc7F)C(=O)N(C7CCC(=O)NC7=O)C8=O)CC6)CC5)cc4)cc23)ccc1CNC(=O)c1nc(C(C)(C)C)no1 (stereo not shown) [Example 2, 3-(tert-butyl)-N-(4-(6-(4-(1-((1-(2-(2,6-dioxopiperidin-3-yl)-6-fluoro-1,3-dioxoisoindolin-5-yl)piperidin-4-yl)methyl)piperidin-4-yl)phenyl)-7H-pyrrolo[2,3-d]pyrimidin-4-yl)-2-methylbenzyl)-1,2,4-oxadiazole-5-carboxamide] | > 10000
3 | 3.8 | Cc1cc(-c2ncnc3[nH]c(-c4ccc(C5CCN(CCC6CCN(c7ccc(N8CCC(=O)NC8=O)cc7)CC6)CC5)cc4)cc23)ccc1CNC(=O)c1nc(C(C)(C)C)no1 [Example 3, 3-(tert-butyl)-N-(4-(6-(4-(1-(2-(1-(4-(2,4-dioxotetrahydropyrimidin-1(2H)-yl)phenyl)piperidin-4-yl)ethyl)piperidin-4-yl)phenyl)-7H-pyrrolo[2,3-d]pyrimidin-4-yl)-2-methylbenzyl)-1,2,4-oxadiazole-5-carboxamide] | 1700
4 | 2.3 | Cc1cc(-c2ncnc3[nH]c(-c4ccc(C5CCN(CCC6CCN(c7ccc(C8CCC(=O)NC8=O)cc7)CC6)CC5)cc4)cc23)ccc1CNC(=O)c1nc(C(C)(C)C)no1 (stereo not shown) [Example 4, 3-(tert-butyl)-N-(4-(6-(4-(1-(2-(1-(4-(2,6-dioxopiperidin-3-yl)phenyl)piperidin-4-yl)ethyl)piperidin-4-yl)phenyl)-7H-pyrrolo[2,3-d]pyrimidin-4-yl)-2-methylbenzyl)-1,2,4-oxadiazole-5-carboxamide] | 3700
5 | 1 | Cc1cc(-c2ncnc3[nH]c(-c4ccc(C5CCN(CC6CN(c7ccc(N8CCC(=O)NC8=O)cc7)C6)CC5)cc4)cc23)ccc1CNC(=O)c1nc(C(C)(C)C)no1 [Example 5, 3-(tert-butyl)-N-(4-(6-(4-(1-((1-(4-(2,4-dioxotetrahydropyrimidin-1(2H)-yl)phenyl)azetidin-3-yl)methyl)piperidin-4-yl)phenyl)-7H-pyrrolo[2,3-d]pyrimidin-4-yl)-2-methylbenzyl)-1,2,4-oxadiazole-5-carboxamide] | 2960
6 | 1.7 | Cc1cc(-c2ncnc3[nH]c(-c4ccc(C5CCN(CCCC6CN(c7ccc8c(c7)C(=O)N(C7CCC(=O)NC7=O)C8=O)C6)CC5)cc4)cc23)ccc1CNC(=O)c1nc(C(C)(C)C)no1 (stereo not shown) [Example 6, 3-(tert-butyl)-N-(4-(6-(4-(1-(3-(1-(2-(2,6-dioxopiperidin-3-yl)-1,3-dioxoisoindolin-5-yl)azetidin-3-yl)propyl)piperidin-4-yl)phenyl)-7H-pyrrolo[2,3-d]pyrimidin-4-yl)-2-methylbenzyl)-1,2,4-oxadiazole-5-carboxamide] | > 10000
7 | 1.3 | Cc1cc(-c2ncnc3[nH]c(-c4ccc(C5CCN(CC6CCN(c7ccc(N8CCC(=O)NC8=O)cc7)CC6)CC5)cc4)cc23)ccc1[C@@H](C)NC(=O)c1nc(C(C)(C)C)no1 [Example 7, (R)-3-(tert-butyl)-N-(1-(4-(6-(4-(1-((1-(4-(2,4-dioxotetrahydropyrimidin-1(2H)-yl)phenyl)piperidin-4-yl)methyl)piperidin-4-yl)phenyl)-7H-pyrrolo[2,3-d]pyrimidin-4-yl)-2-methylphenyl)ethyl)-1,2,4-oxadiazole-5-carboxamide] | 1600
8 | 40.9 | Cc1cc(-c2ncnc3[nH]c(-c4ccc(C5CCN(CC6CCN(c7ccc(N8CCC(=O)NC8=O)cc7)CC6)CC5)cc4)cc23)ccc1[C@H](C)NC(=O)c1nc(C(C)(C)C)no1 [Example 8, (S)-3-(tert-butyl)-N-(1-(4-(6-(4-(1-((1-(4-(2,4-dioxotetrahydropyrimidin-1(2H)-yl)phenyl)piperidin-4-yl)methyl)piperidin-4-yl)phenyl)-7H-pyrrolo[2,3-d]pyrimidin-4-yl)-2-methylphenyl)ethyl)-1,2,4-oxadiazole-5-carboxamide] | 1960
9 | 7.2 | Cc1c(-c2ncnc3[nH]c(-c4ccc(C5CCN(CC6CCN(c7ccc(N8CCC(=O)NC8=O)cc7)CC6)CC5)cc4)cc23)cccc1N1CCn2c(cc3c2CC(C)(C)C3)C1=O [Example 9, 1-(4-(4-((4-(4-(4-(3-(7,7-dimethyl-1-oxo-1,3,4,6,7,8-hexahydro-2H-cyclopenta[4,5]pyrrolo[1,2-a]pyrazin-2-yl)-2-methylphenyl)-7H-pyrrolo[2,3-d]pyrimidin-6-yl)phenyl)piperidin-1-yl)methyl)piperidin-1-yl)phenyl)dihydropyrimidine-2,4(1H,3H)-dione] | 746
10 | 3.4 | Cc1c(-c2ncnc3[nH]c(-c4ccc(N5CCN(CC6CCN(c7ccc(N8CCC(=O)NC8=O)cc7)CC6)CC5)nc4)cc23)cccc1N1CCn2c(cc3c2CC(C)(C)C3)C1=O [Example 10, 1-(4-(4-((4-(5-(4-(3-(7,7-dimethyl-1-oxo-1,3,4,6,7,8-hexahydro-2H-cyclopenta[4,5]pyrrolo[1,2-a]pyrazin-2-yl)-2-methylphenyl)-7H-pyrrolo[2,3-d]pyrimidin-6-yl)pyridin-2-yl)piperazin-1-yl)methyl)piperidin-1-yl)phenyl)dihydropyrimidine-2,4(1H,3H)-dione] | > 10000
11 | 4.7 | Cc1c(-c2ncnc3[nH]c(-c4ccc(N5CCN(CC6CCN(c7ccc(N8CCC(=O)NC8=O)cc7)CC6)CC5)cc4)cc23)cccc1N1CCn2c(cc3c2CC(C)(C)C3)C1=O [Example 11, 1-(4-(4-((4-(4-(4-(3-(7,7-dimethyl-1-oxo-1,3,4,6,7,8-hexahydro-2H-cyclopenta[4,5]pyrrolo[1,2-a]pyrazin-2-yl)-2-methylphenyl)-7H-pyrrolo[2,3-d]pyrimidin-6-yl)phenyl)piperazin-1-yl)methyl)piperidin-1-yl)phenyl)dihydropyrimidine-2,4(1H,3H)-dione] | > 10000
12 | 2 | COc1ccc(C(=O)N2CCC(c3ccc(-c4cc5c(-c6ccc(CNC(=O)c7nc(C(C)(C)C)no7)c(C)c6)ncnc5[nH]4)cc3)CC2)cc1N1CCC(=O)NC1=O [Example 12, 3-(tert-butyl)-N-(4-(6-(4-(1-(3-(2,4-dioxotetrahydropyrimidin-1(2H)-yl)-4-methoxybenzoyl)piperidin-4-yl)phenyl)-7H-pyrrolo[2,3-d]pyrimidin-4-yl)-2-methylbenzyl)-1,2,4-oxadiazole-5-carboxamide] | > 10000
13 | 13.3 | Cc1cc(-c2ncnc3[nH]c(-c4c(C)nn(C5CCN(CC6CCN(c7ccc(N8CCC(=O)NC8=O)cc7)CC6)CC5)c4C)cc23)ccc1[C@@H](C)N(C)C(=O)c1nc(C(C)(C)C)no1 [Example 155, (R)-3-(tert-butyl)-N-(1-(4-(6-(1-(1-((1-(4-(2,4-dioxotetrahydropyrimidin-1(2H)-yl)phenyl)piperidin-4-yl)methyl)piperidin-4-yl)-3,5-dimethyl-1H-pyrazol-4-yl)-7H-pyrrolo[2,3-d]pyrimidin-4-yl)-2-methylphenyl)ethyl)-N-methyl-1,2,4-oxadiazole-5-carboxamide] | –
